Measurements: patent publication US10457672B2, “γ-diketones as Wnt/β-catenin signaling pathway activators” (Samumed, LLC, priority 2013, dated 2019)

test system: Wnt/β-catenin signaling pathway (Wnt-responsive SP5 promoter luciferase reporter in SW480 cells); experiment: Wnt reporter (SP5 promoter-firefly luciferase) activation assay in SW480 cells; format: cell-based; conditions: Homo sapiens; SW480 colon cancer cells with SP5 promoter luciferase reporter; 24 h after compound addition; normalized to DMSO; concentration at half maximal activation
Procedure: Compounds that enhance the Wnt activity, or Activators, were assayed as follows. Reporter cell lines were generated by stably transducing cells of colon cancer cell lines (with a lentiviral construct that included a Wnt-responsive promoter driving expression of the firefly luciferase gene).
Lentiviral constructs were made in which the SP5 promoter, a promoter having eight TCF/LEF binding sites derived from the SP5 promoter, was linked upstream of the firefly luciferase gene. The lentiviral constructs also included a hygromycin resistance gene as a selectable marker. The SP5 promoter construct was used to transduce SW480 cells, a colon cancer cell line having a mutated APC gene that generates a truncated APC protein, leading to de-regulated accumulation of β-catenin.
Cultured SW480 cells bearing a reporter construct were distributed at approximately 10,000 cells per well into 384- or 96-well multiwell plates. Compounds from a small molecule compound library were then added to the wells in half-log dilutions using a maximum concentration of three or ten micromolar. A series of control wells for each cell type received only buffer and compound solvent DMSO. Twenty-four hours after the addition of compound, reporter activity for luciferase was assayed, for example, by addition of the BrightGlo luminescence reagent (Promega) and the Victor3 plate reader (Perkin Elmer). Readings were normalized to DMSO only treated cells, and any activities above DMSO were considered activation. Compounds were considered activators if reporter activities were 2× fold or greater than DMSO. EC50 is the concentration at half maximal activation.

Point of comparison: `O=C(CCC(=O)c1ccccc1C(F)(F)F)c1ccc2[nH]ccc2c1` [Compound 249, 1-(1H-Indol-5-yl)-4-(2-(trifluoromethyl)phenyl)butane-1,4-dione], EC50 0.004 µM. Against it:
- O=C(CCC(=O)c1ccccc1F)c1ccc2[nH]ccc2c1 [Compound 252, 1-(2-Fluorophenyl)-4-(1H-indol-5-yl)butane-1,4-dione] — 4-fold lower, 0.001 µM
- COc1ccccc1C(=O)CCC(=O)c1ccc2[nH]ccc2c1 [Compound 255, 1-(1H-Indol-5-yl)-4-(2-methoxyphenyl)butane-1,4-dione] — 4.2-fold higher, 0.017 µM
- O=C(CCC(=O)c1ccccn1)c1ccc2[nH]ccc2c1 [Compound 258, 1-(1H-Indol-5-yl)-4-(pyridin-2-yl)butane-1,4-dione] — 4-fold higher, 0.016 µM
- O=C(CCC(=O)c1ccc2[nH]ccc2c1)c1ccccc1 [Compound 261, 1-(1H-indol-5-yl)-4-phenylbutane-1,4-dione] — 10-fold higher, 0.042 µM
- O=C(CCC(=O)c1ccc2[nH]cnc2c1)c1cccc(C(F)(F)F)c1 [Compound 263, 1-(1H-Benzo[d]imidazol-5-yl)-4-(3-(trifluoromethyl)phenyl)butane-1,4-dione] — higher, > 10 µM
- O=C(CCC(=O)c1ccccc1F)c1ccc2[nH]cnc2c1 [Compound 265, 1-(1H-Benzo[d]imidazol-5-yl)-4-(2-fluorophenyl)butane-1,4-dione] — 50-fold higher, 0.201 µM
- COc1cccc(C(=O)CCC(=O)c2ccc3[nH]cnc3c2)c1 [Compound 269, 1-(1H-Benzo[d]imidazol-5-yl)-4-(3-methoxyphenyl)butane-1,4-dione] — higher, > 10 µM
- O=C(CCC(=O)c1ccc2[nH]cnc2c1)c1ccccc1 [Compound 274, 1-(1H-Benzo[d]imidazol-5-yl)-4-phenylbutane-1,4-dione] — 1700-fold higher, 6.8 µM
- O=C(CCC(=O)c1ccccc1C(F)(F)F)c1ccc2occc2c1 [Compound 275, 1-(Benzofuran-5-yl)-4-(2-(trifluoromethyl)phenyl)butane-1,4-dione] — 2.2-fold higher, 0.009 µM
- O=C(CCC(=O)c1ccccc1F)c1ccc2occc2c1 [Compound 278, 1-(Benzofuran-5-yl)-4-(2-fluorophenyl)butane-1,4-dione] — 4.5-fold higher, 0.018 µM
- COc1ccccc1C(=O)CCC(=O)c1ccc2occc2c1 [Compound 281, 1-(Benzofuran-5-yl)-4-(2-methoxyphenyl)butane-1,4-dione] — 15-fold higher, 0.061 µM
- O=C(CCC(=O)c1ccc2occc2c1)c1ccccc1 [Compound 287, 1-(Benzofuran-5-yl)-4-phenylbutane-1,4-dione] — 22-fold higher, 0.087 µM
- O=C(CCC(=O)c1ccccc1C(F)(F)F)c1ccc2ocnc2c1 [Compound 288, 1-(Benzo[d]oxazol-5-yl)-4-(2-(trifluoromethyl)phenyl)butane-1,4-dione] — higher, > 10 µM
- O=C(CCC(=O)c1ccccc1F)c1ccc2ocnc2c1 [Compound 291, 1-(Benzo[d]oxazol-5-yl)-4-(2-fluorophenyl)butane-1,4-dione] — 31-fold higher, 0.125 µM
- O=C(CCC(=O)c1ccc2ocnc2c1)c1cccc(F)c1 [Compound 292, 1-(Benzo[d]oxazol-5-yl)-4-(3-fluorophenyl)butane-1,4-dione] — 150-fold higher, 0.595 µM
- COc1ccccc1C(=O)CCC(=O)c1ccc2ocnc2c1 [Compound 294, 1-(Benzo[d]oxazol-5-yl)-4-(2-methoxyphenyl)butane-1,4-dione] — 430-fold higher, 1.72 µM
- O=C(CCC(=O)c1ccc2ocnc2c1)c1ccccc1 [Compound 300, 1-(Benzo[d]oxazol-5-yl)-4-phenylbutane-1,4-dione] — 4.5-fold higher, 0.018 µM
- O=C(CCC(=O)c1ccccc1C(F)(F)F)c1ccc2sccc2c1 [Compound 301, 1-(Benzo[b]thiophen-5-yl)-4-(2-(trifluoromethyl)phenyl)butane-1,4-dione] — 9.8-fold higher, 0.039 µM
- COc1ccccc1C(=O)CCC(=O)c1ccc2sccc2c1 [Compound 307, 1-(Benzo[b]thiophen-5-yl)-4-(2-methoxyphenyl)butane-1,4-dione] — 14-fold higher, 0.055 µM
- O=C(CCC(=O)c1ccccn1)c1ccc2sccc2c1 [Compound 310, 1-(Benzo[b]thiophen-5-yl)-4-(pyridin-2-yl)butane-1,4-dione] — 17-fold higher, 0.068 µM
- O=C(CCC(=O)c1ccc2sccc2c1)c1ccccc1 [Compound 313, 1-(Benzo[b]thiophen-5-yl)-4-phenylbutane-1,4-dione] — 11-fold higher, 0.044 µM
- O=C(CCC(=O)c1c[nH]c2ccccc12)c1ccccc1C(F)(F)F [Compound 314, 1-(1H-Indol-3-yl)-4-(2-(trifluoromethyl)phenyl)butane-1,4-dione] — 4-fold higher, 0.016 µM
- O=C(CCC(=O)c1c[nH]c2ccccc12)c1ccc(C(F)(F)F)cc1 [Compound 316, 1-(1H-Indol-3-yl)-4-(4-(trifluoromethyl)phenyl)butane-1,4-dione] — higher, > 10 µM
- O=C(CCC(=O)c1c[nH]c2ccccc12)c1ccccc1F [Compound 317, 1-(2-Fluorophenyl)-4-(1H-indol-3-yl)butane-1,4-dione] — higher, > 10 µM
- COc1ccccc1C(=O)CCC(=O)c1c[nH]c2ccccc12 [Compound 319, 1-(1H-Indol-3-yl)-4-(2-methoxyphenyl)butane-1,4-dione] — 70-fold higher, 0.279 µM
- COc1cccc(C(=O)CCC(=O)c2c[nH]c3ccccc23)c1 [Compound 320, 1-(1H-Indol-3-yl)-4-(3-methoxyphenyl)butane-1,4-dione] — higher, > 10 µM
- O=C(CCC(=O)c1c[nH]c2ccccc12)c1ccccc1 [Compound 325, 1-(1H-Indol-3-yl)-4-phenylbutane-1,4-dione] — 16-fold higher, 0.063 µM
- O=C(CCC(=O)c1n[nH]c2ccccc12)c1ccccc1C(F)(F)F [Compound 326, 1-(1H-Indazol-3-yl)-4-(2-(trifluoromethyl)phenyl)butane-1,4-dione] — 29-fold higher, 0.117 µM
- O=C(CCC(=O)c1n[nH]c2ccccc12)c1ccccc1F [Compound 329, 1-(2-Fluorophenyl)-4-(1H-indazol-3-yl)butane-1,4-dione] — 22-fold higher, 0.089 µM
- COc1ccccc1C(=O)CCC(=O)c1n[nH]c2ccccc12 [Compound 332, 1-(1H-Indazol-3-yl)-4-(2-methoxyphenyl)butane-1,4-dione] — 170-fold higher, 0.68 µM
- COc1ccc(C(=O)CCC(=O)c2n[nH]c3ccccc23)cc1 [Compound 334, 1-(1H-Indazol-3-yl)-4-(4-methoxyphenyl)butane-1,4-dione] — higher, > 10 µM
- O=C(CCC(=O)c1n[nH]c2ccccc12)c1ccccc1 [Compound 338, 1-(1H-Indazol-3-yl)-4-phenylbutane-1,4-dione] — 16-fold higher, 0.064 µM
- O=C(CCC(=O)c1ncccn1)c1ccc2c(c1)OCCO2 [Compound 339, 1-(2,3-Dihydrobenzo[b][1,4]dioxin-6-yl)-4-(pyrimidin-2-yl)butane-1,4-dione] — 2.2-fold higher, 0.009 µM
- O=C(CCC(=O)c1ccncn1)c1ccc2c(c1)OCCO2 [Compound 340, 1-(2,3-Dihydrobenzo[b][1,4]dioxin-6-yl)-4-(pyrimidin-4-yl)butane-1,4-dione] — 52-fold higher, 0.209 µM
- O=C(CCC(=O)c1cccnn1)c1ccc2c(c1)OCCO2 [Compound 341, 1-(2,3-Dihydrobenzo[b][1,4]dioxin-6-yl)-4-(pyridazin-3-yl)butane-1,4-dione] — 24-fold higher, 0.095 µM
- Cc1ccccc1C(=O)CCC(=O)c1ccc2c(c1)OCCO2 [Compound 342, 1-(2,3-Dihydrobenzo[b][1,4]dioxin-6-yl)-4-(o-tolyl)butane-1,4-dione] — 2.2-fold higher, 0.009 µM
- Cc1cccc(C(=O)CCC(=O)c2ccc3c(c2)OCCO3)c1 [Compound 343, 1-(2,3-Dihydrobenzo[b][1,4]dioxin-6-yl)-4-(m-tolyl)butane-1,4-dione] — 88-fold higher, 0.351 µM
